In US8883798B2, “Pyrimidine compounds inhibiting the formation of nitric oxide and prostaglandin E2, method of production thereof and use thereof” (Ustav Organicke Chemie a Biochemie Akademie Ved CR, V.V.I., priority 2011, dated 2014):

Columns and labels:
[1] = test system: peritoneal cells of mice; experiment: Cell viability of mouse peritoneal cells (WST-1 kit); assay type: cell-based; details: substance 50 μmol·l^−1, 24 h; for Cell viabilities in % of the controls: Table 3B; for Cell viability in % of the controls: Table 3A
Procedure, shortened: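 C57BL/6 mouse peritoneal cells (1×10^6/mL) cultured 24 h with compounds at 50 μmol·l^−1. Viability read with WST-1 tetrazolium salt and expressed as percent of untreated control cells (100%).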

[2] = test system: production of prostaglandin E2 (PGE2); experiment: Production of prostaglandin E2 (PGE2) in cultures of mouse peritoneal cells stimulated with LPS (ELISA kit); assay type: cell-based, mice; details: for Production of prostaglandins IC50 (μmol · 1^−1) average value and range of values: Table 3B, 6 h; for Production of prostaglandins in % of the controls: Table 3A, substance 50 μmol·l^−1, 6 h
Procedure, shortened: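 C57BL/6 mouse peritoneal cells (3×10^6/mL) stimulated with LPS (10 ng/mL). PGE2 measured by ELISA.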

[3] = test system: production of nitric oxide (NO); experiment: Production of nitric oxide (NO) in cultures of mouse peritoneal cells stimulated with IFN-γ plus LPS (Griess reagent); assay type: cell-based, mice; details: substance 50 μmol·l^−1, IFN-g plus LPS, 24 h
Procedure, shortened: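 C57BL/6 mouse peritoneal cells (2×10^6/mL) stimulated with IFN-γ (5000 pg/mL) plus LPS (100 pg/mL), compounds at 50 μmol·l^−1. Nitrite measured by Griess reagent after 24 h, expressed as % of stimulated control (set 100%); IC50 is concentration reducing NO by 50%.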

Row | SMILES | Cell viabilities in % of the controls [1] | Production of prostaglandins IC50 (μmol · 1^−1) average value and range of values [2] | Production of nitric oxide in % of the controls ([3]; Table 3B) | Cell viability in % of the controls [1] | Production of prostaglandins in % of the controls [2] | Production of nitric oxide in % of the controls ([3]; Table 3A)
1 | CCCCc1c(-c2cccnc2)nc(N)nc1-c1ccsc1 [Substance 110] | 90.73 ± 10.89; n = 4 % of the controls | 64.72 ± 14.00; n = 2 μmol · 1^−1 | 62.00 ± 2.93; n = 4 % of the controls |  |  | 
2 | CCCCc1c(-c2ccccc2)nc(N)nc1-c1ccccc1 [Substance 67] | 93.60 ± 2.81; n = 4 % of the controls | 76.75 ± 10.63; n = 4 μmol · 1^−1 | 80.37 ± 1.36; n = 4 % of the controls |  |  | 
3 | CCCCc1c(-c2cccnc2)nc(N)nc1-c1cccs1 [Substance 90] | 69.80 ± 6.79; n = 4 % of the controls | 31.93 ± 15.87; n = 4 μmol · 1^−1 | 50.11 ± 3.95; n = 4 % of the controls |  |  | 
4 | CCCCc1c(-c2ccncc2)nc(N)nc1-c1cccs1 [Substance 91] | 81.38 ± 6.86; n = 4 % of the controls | 29.01 ± 5.46; n = 4 μmol · 1^−1 | 63.95 ± 2.00; n = 4 % of the controls |  |  | 
5 | CCCCc1c(-c2ccoc2)nc(N)nc1-c1cc2ccccc2o1 [Substance 123] | 42.62 ± 11.49; n = 12 % of the controls | 35.10 ± 14.56; n = 4 μmol · 1^−1 | 11.15 ± 2.99; n = 6 % of the controls |  |  | 
6 | CCCCc1c(-c2ccccn2)nc(N)nc1-c1cc2ccccc2o1 [Substance 118] | 91.38 ± 4.41; n = 8 % of the controls | 52.17 ± 14.96; n = 6 μmol · 1^−1 | 56.53 ± 3.33; n = 8 % of the controls |  |  | 
7 | CCCc1c(Cl)nc(N)nc1Cl [Substance 27] |  |  |  | 87.86 ± 9.18 % of the controls | 31.73 ± 4.35 % of the controls | 46.98 ± 10.25 % of the controls
8 | CCCCc1c(-c2ccncc2)nc(N)nc1-c1cccc2ccccc12 [Substance 137] | 85.07 ± 1.02; n = 4 % of the controls | 28.00 ± 9.43; n = 2 μmol · 1^−1 | 58.04 ± 6.68; n = 4 % of the controls |  |  | 
9 | C=CCc1c(Cl)nc(N=CN(C)C)nc1Cl [Substance 17] |  |  |  | 136.13 ± 11.32 % of the controls | 15.72 ± 0.46 % of the controls | 6.2 ± 0.91 % of the controls
10 | CCCCc1c(-c2ccoc2)nc(N)nc1-c1cccc2ccccc12 [Substance 139] | 104.41 ± 10.83; n = 8 % of the controls | 18.35 ± 3.26; n = 4 μmol · 1^−1 | 70.38 ± 4.95; n = 6 % of the controls |  |  | 
11 | CCCCc1c(-c2ccccc2)nc(N)nc1-c1cccc2ccccc12 [Substance 133] | 110.75 ± 3.69; n = 4 % of the controls | 61.74 ± 17.48; n = 2 μmol · 1^−1 | 49.60 ± 9.26; n = 4 % of the controls |  |  | 
12 | CCCCc1c(-c2cc3ccccc3o2)nc(N)nc1-c1cccs1 [Substance 121] | 90.22 ± 7.99; n = 12 % of the controls | 62.54 ± 21.79; n = 6 μmol · 1^−1 | 55.17 ± 7.88; n = 10 % of the controls |  |  | 
13 | CCCCc1c(Cl)nc(N)nc1-c1ccco1 [Substance 101] | 68.95 ± 3.02; n = 8 % of the controls | 6.60 ± 5.34; n = 4 μmol · 1^−1 | 29.35 ± 6.38; n = 6 % of the controls |  |  | 
14 | CCCCc1c(Cl)nc(NCc2ccccc2)nc1Cl [Substance 145] | 147.31 ± 4.88; n = 8 % of the controls | 0.28 ± 0.23; n = 4 μmol · 1^−1 | 93.01 ± 9.25; n = 6 % of the controls |  |  | 
15 | CCCCc1c(-c2ccco2)nc(N)nc1-c1cc2ccccc2o1 [Substance 122] | 81.66 ± 4.41; n = 8 % of the controls | 68.47 ± 8.71; n = 2 μmol · 1^−1 | 35.04 ± 5.71; n = 6 % of the controls |  |  | 
16 | CCCCc1c(Cl)nc(N)nc1-c1cccnc1 [Substance 82] | 45.38 ± 2.92; n = 12 % of the controls | 92.02 ± 8.95; n = 4 μmol · 1^−1 | 12.07 ± 2.39; n = 8 % of the controls |  |  | 

Row | SMILES | Cell viabilities in % of the controls [1] | Production of prostaglandins IC50 (μmol · 1^−1) average value and range of values [2] | Production of nitric oxide in % of the controls ([3]; Table 3B) | Cell viability in % of the controls [1] | Production of prostaglandins in % of the controls [2] | Production of nitric oxide in % of the controls ([3]; Table 3A)
17 | CCCCc1c(-c2ccc(OC)cc2)nc(N)nc1-c1cc2ccccc2o1 [Substance 117] | 75.92 ± 9.72; n = 8 % of the controls | 64.65 ± 4.88; n = 2 μmol · 1^−1 | 89.91 ± 4.02; n = 6 % of the controls |  |  | 
18 | CCCCc1c(Cl)nc(N)nc1-c1ccc(OC)cc1 [Substance 75] | 86.35 ± 9.29; n = 8 % of the controls | 4.7 ± 1.17; n = 4 μmol · 1^−1 | 15.96 ± 4.83; n = 4 % of the controls |  |  | 
19 | CCCCc1c(-c2ccc(F)cc2)nc(N)nc1-c1ccsc1 [Substance 108] | 124.71 ± 15.20; n = 4 % of the controls | 47.21 ± 2.59; n = 2 μmol · 1^−1 | 64.92 ± 2.30; n = 4 % of the controls |  |  | 
20 | CCCCc1c(-c2ccc(OC)cc2)nc(N)nc1-c1ccccn1 [Substance 77] | 100.86 ± 11.78; n = 4 % of the controls | 13.48 ± 1.94; n = 4 μmol · 1^−1 | 58.20 ± 5.42; n = 6 % of the controls |  |  | 
21 | CCCCc1c(-c2ccncc2)nc(N)nc1-c1ccco1 [Substance 98] | 69.84 ± 3.62; n = 8 % of the controls | 62.49 ± 11.98; n = 4 μmol · 1^−1 | 54.42 ± 2.64; n = 6 % of the controls |  |  | 
22 | CCCCc1c(-c2ccco2)nc(N)nc1-c1cccc2ccccc12 [Substance 138] | 93.61 ± 5.46; n = 4 % of the controls | 43.57 ± 4.53; n = 2 μmol · 1^−1 | 42.92 ± 3.77; n = 4 % of the controls |  |  | 
23 | CCCCc1c(-c2ccc(OC)cc2)nc(N)nc1-c1ccco1 [Substance 96] | 113.53 ± 4.93; n = 8 % of the controls | 43.05 ± 21.74; n = 4 μmol · 1^−1 | 50.99 ± 2.60; n = 4 % of the controls |  |  | 
24 | CCCCc1c(-c2ccccn2)nc(N)nc1-c1cccs1 [Substance 89] | 104.15 ± 10.36; n = 8 % of the controls | 92.30 ± 9.20; n = 4 μmol · 1^−1 | 19.62 ± 4.08; n = 6 % of the controls |  |  | 
25 | CCCCc1c(Cl)nc(NN)nc1Cl.Cl [Substance 146] | 103.28 ± 4.62; n = 8 % of the controls | 1.61 ± 0.27; n = 4 μmol · 1^−1 | 86.28 ± 9.01; n = 6 % of the controls |  |  | 
26 | CCCCc1c(-c2ccc(OC)cc2)nc(N)nc1-c1ccc(OC)cc1 [Substance 74] | 98.75 ± 5.63; n = 12 % of the controls | 38.22 ± 5.59; n = 2 μmol · 1^−1 | 86.27 ± 4.16; n = 4 % of the controls |  |  | 
27 | CCCCc1c(-c2cc3ccccc3o2)nc(N)nc1-c1cc2ccccc2o1 [Substance 125] | 76.82 ± 8.89; n = 8 % of the controls | 73.07 ± 1.91; n = 2 μmol · 1^−1 | 67.76 ± 6.80; n = 6 % of the controls |  |  | 
28 | CCCCc1c(-c2ccoc2)nc(N)nc1-c1ccoc1 [Substance 105] | 101.86 ± 5.13; n = 4 % of the controls | 50.30 ± 9.52; n = 4 μmol · 1^−1 | 49.07 ± 4.67; n = 4 % of the controls |  |  | 
29 | CCCCc1c(-c2ccncc2)nc(N)nc1-c1cc2ccccc2s1 [Substance 129] | 85.12 ± 0.76; n = 8 % of the controls | 65.97 ± 25.34; n = 2 μmol · 1^−1 | 63.94 ± 1.84 n = 4 % of the controls |  |  | 
30 | CCC(C)c1c(Cl)nc(NC=O)nc1Cl (stereo not drawn) [Substance 54] |  |  |  | 77.51 ± 14.73 % of the controls | 30.48 ± 1.79 % of the controls | 0.17 ± 0.17 % of the controls
31 | CCCCc1c(-c2ccsc2)nc(N)nc1-c1ccco1 [Substance 112] | 92.77 ± 7.75; n = 12 % of the controls | 55.24 ± 7.98; n = 4 μmol · 1^−1 | 47.96 ± 4.90; n = 6 % of the controls |  |  | 
